Experimental data as given in ChEMBL document CHEMBL1124578, “A potent, tissue-selective, synthetic inhibitor of HMG-CoA reductase” (J Med Chem, 1989).

What was measured:
[1] = Ratio of the mean IC50 for sterol-synthesis inhibition of spleen relative to hepatocytes in rat; assay type: functional, Hepatocyte
[2] = Ratio of the mean IC50 for sterol-synthesis inhibition of adrenal relative to hepatocytes in rat; assay type: functional, Hepatocyte
[3] = Ratio of the mean IC50 for sterol-synthesis inhibition of testes relative to hepatocytes in rat; assay type: functional, Hepatocyte
[4] = Ratio of the mean IC50 for sterol-synthesis inhibition of hepatocytes relative to hepatocytes in rat; assay type: functional, Hepatocyte
[5] = test system: HMG-CoA reductase (Rattus norvegicus); test: In vitro inhibition of rat liver microsomal HMG-CoA reductase activity; No Activity

| IC50 [5] | Compound | Ratio [1] | Ratio [2] | Ratio [3] | Ratio [4] |
| --- | --- | --- | --- | --- | --- |
|  | Cn1nnnc1C(/C=C/[C@@H]1C[C@@H](O)CC(=O)O1)=C(c1ccc(F)cc1)c1ccc(F)cc1 | 149 | 76 | 86 | 1 |
|  | CC[C@H](C)C(=O)O[C@H]1C[C@@H](C)C=C2C=C[C@H](C)[C@H](CC[C@@H]3C[C@@H](O)CC(=O)O3)[C@H]21 [LOVASTATIN] | 1.2 | 1 | 1.3 | 1 |
| Not Active | Cn1nnnc1C(/C=C/[C@H]1C[C@H](O)CC(=O)O1)=C(c1ccc(F)cc1)c1ccc(F)cc1 |  |  |  |  |
